In patent publication US8435939B2, “Polypeptide anti-HIV agent containing the same” (priority 2000, dated 2013):
Where a SMILES comes first, the peptide text is derived from it. Bridges are numbered along the chain shown (N, C = ends). [ ]: non-standard residue; d: D form. 2Nal = N[C@@H](Cc1ccc2ccccc2c1)C(=O)O; Cit = NC(=O)NCCC[C@H](N)C(=O)O

Assays:
Format in all cases: cell-based
HIV-1 (IIIB) strain = assay: Anti-HIV activity: inhibition of MT-4 cell death by HIV infection (MTT method); conditions: for EC50: MT-4 CD4+ T cells infected by HIV-1 (IIIB), 37° C., 5 days, MTT, average of at least three measurements, read-out: EC50 (concentration where MT-4 cell death by HIV infection is inhibited by 50%)
Description: (§1) HIV-1 (IIIB) strain obtained from MOLT/HIV-1 (IIIB) cell previously infected by HIV-1 was used. The polypeptide of the present invention was added to MT-4 CD4^+ T cells infected by HIV in various kinds of concentrations, and a number of living cells after culturing at 37° C. for 5 days was determined by using a 3′-(4,5-dimethylthiazol-2-yl)-2,5-diphenyltetrazolinium bromide (MTT) method. Anti-HIV activity is shown by a concentration (EC50 value), where MT-4 cell death by HIV infection is inhibited by 50%. Cytotoxicity of the peptide according to the present invention was shown by a 50% survival concentration (Test I: CC50 value) by culturing virus-uninfected MT-4 cells with the polypeptide according to the present invention in various concentrations, and determining a number of living cells by the MTT method. Moreover, a number of living cells of human peripheral blood mononuclear cells (monocyte) (PBMC) was determined by trypan blue dyeing method, and shown by a 50% survival concentration (Test II: CC50 value). Respective ratios of the CC50 value and the EC50 value were shown as a selective index (SI). Obtained values were summarized in Table 3 using the conventionally known polypeptides T134 and T140, and an anti-HIV compound: 3′-azido-2′,3′-dideoxythymidine (AZT) used as a medicine as a control anti-HIV agent.

[1] = Cytotoxicity Test I: virus-uninfected MT-4 cells, MTT method; conditions: human, MT-4 cells (virus-uninfected); virus-uninfected MT-4 cells, MTT method; read-out: CC50 (Test I), 50% survival concentration
Description: as §1

[2] = test system: virus-uninfected MT-4 cells; assay: as above; conditions: for SI: CC50 (Test I)/EC50: selective index, MT-4 CC50 over anti-HIV EC50; for cytotoxicity in words, compared with conventional T134/T140: conclusion drawn from Table 3
Description: as §1

Structure (SMILES): C[C@@H]1NC(=O)[C@H](Cc2ccc(O)cc2)NC(=O)[C@@H]2CCCN2C(=O)[C@@H](CCCCN)NC(=O)[C@H](CCCCN)NC(=O)[C@H](CCCNC(=N)N)NC(=O)[C@H](Cc2ccc(O)cc2)NC(=O)[C@@H](NC(=O)[C@H](Cc2ccc3ccccc3c2)NC(=O)[C@H](CCCNC(=N)N)NC(=O)[C@@H](N)CCCNC(=N)N)CSSC[C@@H](C(=O)N[C@@H](CCCNC(=N)N)C(=O)O)NC(=O)[C@H](CCCNC(N)=O)NC1=O [TA14010, H-Arg-Arg-Nal-Cys-Tyr-Arg-Lys-DLys-Pro-Tyr-Ala-Cit-Cys-Arg-OH] (H-RR[2Nal]CYRK[dK]PYA[Cit]CR-OH; disulfide 4-13)
- EC50 (HIV-1 (IIIB) strain): 18 nM
- CC50 [1]: > 80000 nM
- SI: CC50 (Test I)/EC50 [2]: >4800

Structure (SMILES): N=C(N)NCCC[C@H](NC(=O)[C@@H]1CSSC[C@H](NC(=O)[C@H](Cc2ccc3ccccc3c2)NC(=O)[C@H](CCCNC(=N)N)NC(=O)[C@@H](N)CCCNC(=N)N)C(=O)N[C@@H](Cc2ccc(O)cc2)C(=O)N[C@@H](CCCNC(N)=O)C(=O)N[C@@H](CCCCN)C(=O)N[C@H](CCCCN)C(=O)N2CCC[C@H]2C(=O)N[C@@H](Cc2ccc(O)cc2)C(=O)N[C@@H](CCCNC(=N)N)C(=O)N[C@@H](CCCNC(N)=O)C(=O)N1)C(N)=O [TN14003, H-Arg-Arg-Nal-Cys-Tyr-Cit-Lys-DLys-Pro-Tyr-Arg-Cit-Cys-Arg-NH2] (H-RR[2Nal]CY[Cit]K[dK]PYR[Cit]CR-NH2; disulfide 4-13 (inferred))
- EC50 (HIV-1 (IIIB) strain): 0.6 nM
- CC50 [1]: > 100000 nM
- cytotoxicity in words, compared with conventional T134/T140 [2]: lowered cytotoxicity
- SI: CC50 (Test I)/EC50 [2]: >166000

Structure (SMILES): N=C(N)NCCC[C@H](NC(=O)[C@@H]1CSSC[C@H](NC(=O)[C@H](Cc2ccc3ccccc3c2)NC(=O)[C@H](CCCNC(=N)N)NC(=O)[C@@H](N)CCCNC(=N)N)C(=O)N[C@@H](Cc2ccc(O)cc2)C(=O)N[C@@H](CCCNC(N)=O)C(=O)N[C@@H](CCCCN)C(=O)N[C@H](CCCNC(N)=O)C(=O)N2CCC[C@H]2C(=O)N[C@@H](Cc2ccc(O)cc2)C(=O)N[C@@H](CCCNC(=N)N)C(=O)N[C@@H](CCCNC(N)=O)C(=O)N1)C(N)=O [TC14012, H-Arg-Arg-NaI-Cys-Tyr-Cit-Lys-DCit-Pro-Tyr-Arg-Cit-Cys-Arg-NH2]
- EC50 (HIV-1 (IIIB) strain): 0.4 nM
- anti-HIV activity in words, compared with T140 (HIV-1 (IIIB) strain; conclusion drawn from Table 3): higher anti-HIV activity
- CC50 [1]: > 100000 nM
- cytotoxicity in words, compared with conventional T134/T140 [2]: lowered cytotoxicity
- SI: CC50 (Test I)/EC50 [2]: >250000

Structure (SMILES): C[C@@H]1NC(=O)[C@@H]2CCCN2C(=O)[C@@H](CCCCN)NC(=O)[C@H](CCCCN)NC(=O)[C@H](CCCN=C(N)N)NC(=O)[C@H](Cc2ccc(O)cc2)NC(=O)[C@@H](NC(=O)[C@H](Cc2ccc3ccccc3c2)NC(=O)[C@H](CCCN=C(N)N)NC(=O)[C@@H](N)CCCN=C(N)N)CSSC[C@@H](C(=O)N[C@@H](CCCN=C(N)N)C(=O)O)NC(=O)[C@H](CCCNC(N)=O)NC(=O)[C@H](CCCN=C(N)N)NC1=O [TA14009, H-Arg-Arg-Nal-Cys-Tyr-Arg-Lys-DLys-Pro-Ala-Arg-Cit-Cys-Arg-OH] (H-RR[2Nal]CYRK[dK]PAR[Cit]CR-OH; disulfide 4-13)
- CC50 [1]: > 80000 nM
- SI: CC50 (Test I)/EC50 [2]: >4500

Structure (SMILES): C[C@@H]1NC(=O)[C@H](CCCN=C(N)N)NC(=O)[C@H](Cc2ccc(O)cc2)NC(=O)[C@@H](NC(=O)[C@H](Cc2ccc3ccccc3c2)NC(=O)[C@H](CCCN=C(N)N)NC(=O)[C@@H](N)CCCN=C(N)N)CSSC[C@@H](C(=O)N[C@@H](CCCN=C(N)N)C(=O)O)NC(=O)[C@H](CCCNC(N)=O)NC(=O)[C@H](CCCN=C(N)N)NC(=O)[C@H](Cc2ccc(O)cc2)NC(=O)[C@@H]2CCCN2C(=O)[C@@H](CCCCN)NC1=O [TA14006, H-Arg-Arg-Nal-Cys-Tyr-Arg-Ala-DLys-Pro-Tyr-Arg-Cit-Cys-Arg-OH] (H-RR[2Nal]CYRA[dK]PYR[Cit]CR-OH; disulfide 4-13)
- CC50 [1]: > 80000 nM
- SI: CC50 (Test I)/EC50 [2]: >1800
